Patent US20050203191A1, “1-Aminocyclohexane derivatives for the treatment of agitation and other behavioral disorders, especially those associated with alzheimer's disease” (priority 2004, published 2005)

Tested on: patients suffering from moderate to severe AD
Test: MZ-9605 (Therapy Example 1): 28-week double-blind placebo-controlled trial of memantine 20 mg/day
Type: in vivo, human
Description: Patients suffering from moderate to severe AD were randomized to placebo or 20 mg memantine daily for 28 weeks. Primary efficacy variables were the Clinician's Interview-Based Impression of Change plus caregiver input (CIBIC-Plus) and the Alzheimer's Disease Cooperative Study Activities of Daily Living Inventory modified for severe dementia (ADCS-ADL). Secondary efficacy variables included the Severe Impairment Battery (SIB) and Neuropsychiatric Inventory (NPI). Treatment differences between baseline and endpoint were assessed. Incomplete observations were imputed using the most recent previous observation (last observation carried forward—LOCF). Results were also analyzed using only the observed values, where missing values were not replaced (Observed Cases (OC) analysis). AD patients (N=252), (67 percent female, mean age=76 years), were randomized from 32 U.S. centers. Of these, 181 completed the study (72 percent) and were evaluated at week 28. Seventy-one patients discontinued treatment prematurely (42 placebo, 29 memantine). Change on the CIBIC-Plus favored memantine over placebo (P=0.06 LOCF, P=0.03 OC) Memantine-treated patients deteriorated less than placebo treated patients on the ADCS-ADL (P=0.02 LOCF, P=0.003 OC) and the SBI (P=<0.001 LOCF, P=0.002 OC). NPI change scores at week 28 were statistically significant. Depending on the type of analysis, this benefit was found in two domains: agitation (p=0.008 LOCF) and delusion (p=0.04 LOCF) or for agitation, only (p=0.023 OC). The finding for agitation also occurred in the dichotomised analyses for memantine-treated patients with and without behavioural symptoms at baseline. […] This study supports the antiglutamatergic treatment approach in moderate to severe AD, a phase associated with patient distress and caregiver burden, for which other treatments are not available and the treatment of behavioral disorders associated therewith.
Community residing patients at least 50 years old with probable AD according to Diagnostic and Statistical Manual of Mental Disorders (DSM-IV) (American Psychiatric Association. Diagnostic and statistical manual of mental disorders. 4th ed. Washington: American Psychiatric Association; 1994.) and National Institute of Neurologic and Communicative Disorders and Stroke and AD and Related Disorders Association (NINCDS-ADRDA) criteria (McKhann G, Drachman D, Folstein M, Katzman R, Price D, Stadlan E M, Clinical diagnosis of Alzheimer's disease: report of the NINCDS-ADRDA Work Group under the auspices of Department of Health and Human Services Task Force on Alzheimer's Disease. Neurology 1984;34:939-44) were recruited. Eligibility criteria included: baseline Mini-Mental State Examination (MMSE) scores of 3-14 (Folstein M F, Folstein, S E, McHugh, P R, Mini-mental state. A practical method for grading the cognitive state of patients for the clinician. J Psychiat Res 1975;12:189-98.), stage 5 or 6 on the Global Deterioration Scale (GDS) (Reisberg B, Ferris S H, de Leon M J, Crook T, The Global Deterioration Scale for assessment of primary degenerative dementia. Am J Psychiatry 1982;139:1136-9.), and a stage of 6a or greater on the Functional Assessment Staging (FAST) (Sclan S G, Reisberg B, Functional assessment staging (FAST) in Alzheimer's disease: reliability, validity, and ordinality. Int Psychogeriatr 1992;4 Suppl 1:55-69.) instrument, signifying the presence of dementia-related deficits in the ability to perform one or more basic activities of daily living. Patients had reliable caregivers and recent (within 12 months) computed tomography (CT) or magnetic resonance imaging (MRI). […]

[1] = MZ-9605, week 28, ITT LOCF, NPI total score <75%
[2] = MZ-9605, week 28, ITT LOCF, NPI total score ≧=75% (top quartile)
[3] = MZ-9605, week 28, ITT LOCF, antipsychotics usage “YES” (N = n)
[4] = MZ-9605, week 28, ITT LOCF, antipsychotics usage “YES” (N = y)
[5] = MZ-9605, week 28, ITT LOCF, baseline NPI agitation score <4
[6] = MZ-9605, week 28, ITT LOCF, baseline NPI agitation score ≧=4
[7] = MZ-9605, week 28, ITT LOCF, overall

CC12CC3CC(C)(C1)CC(N)(C3)C2 [memantine, 1-amino-3,5-dimethyl adamantane]
adverse events (20 mg/day, 28 weeks): not associated with significant adverse events
patients who experienced an adverse event of agitation (20 mg/day, 28 weeks): 18%
premature discontinuations due to adverse events (20 mg/day, prior to week 28): 10%
Change (baseline to week 28) in NPI domain Aberr. Mot. Behavior (ITT, OC): 0.01
Change (baseline to week 28) in NPI domain Agitation/Aggression (ITT, OC): −0.01
Change (baseline to week 28) in NPI domain Anxiety (ITT, OC): 0.51
Change (baseline to week 28) in NPI domain Apathy/Indifference (ITT, OC): −0.25
Change (baseline to week 28) in NPI domain App./Eating Change (ITT, OC): 0.00
Change (baseline to week 28) in NPI domain Delusions (ITT, OC): −0.38
Change (baseline to week 28) in NPI domain Depression/Dysphoria (ITT, OC): 0.00
Change (baseline to week 28) in NPI domain Disinhibition (ITT, OC): −0.53
Change (baseline to week 28) in NPI domain Elation/Euphoria (ITT, OC): 0.18
Change (baseline to week 28) in NPI domain Hallucinations (ITT, OC): 0.47
Change (baseline to week 28) in NPI domain Irritabililty/Lability (ITT, OC): 0.04
Change (baseline to week 28) in NPI domain Night-time Behavior (ITT, OC): 0.05
ADCS-ADL (change) LS Mean Diff., MEM v. PLA [1]: 1.48
ADCS-ADL (change) mean [1]: −3.4
CIBIC-PLUS Raw Mean Diff., MEM v. PLA [1]: −0.2
CIBIC-PLUS mean [1]: 4.4
SIB (change) LS Mean Diff., MEM v. PLA [1]: 3.36
SIB (change) mean [1]: −5.6
ADCS-ADL (change) LS Mean Diff., MEM v. PLA [2]: −3.47
ADCS-ADL (change) mean [2]: −2.1
CIBIC-PLUS Raw Mean Diff., MEM v. PLA [2]: −0.4
CIBIC-PLUS mean [2]: 4.6
SIB (change) LS Mean Diff., MEM v. PLA [2]: 13.3
SIB (change) mean [2]: 0.03
ADCS-ADL (change) LS Mean Diff., MEM v. PLA [3]: 1.9
ADCS-ADL (change) mean [3]: −2.7
CIBIC-PLUS Raw Mean Diff., MEM v. PLA [3]: −0.22
CIBIC-PLUS mean [3]: 4.47
SIB (change) LS Mean Diff., MEM v. PLA [3]: 5.1
SIB (change) mean [3]: −4.1
ADCS-ADL (change) LS Mean Diff., MEM v. PLA [4]: 0.9
ADCS-ADL (change) mean [4]: −5.5
CIBIC-PLUS Raw Mean Diff., MEM v. PLA [4]: −0.29
CIBIC-PLUS mean [4]: 4.62
SIB (change) LS Mean Diff., MEM v. PLA [4]: 10.6
SIB (change) mean [4]: −2.5
ADCS-ADL (change) LS Mean Diff., MEM v. PLA [5]: 1.18
ADCS-ADL (change) mean [5]: −3.5
CIBIC-PLUS Raw Mean Diff., MEM v. PLA [5]: −0.2
CIBIC-PLUS mean [5]: 4.5
SIB (change) LS Mean Diff., MEM v. PLA [5]: 3.75
SIB (change) mean [5]: −4.8
ADCS-ADL (change) LS Mean Diff., MEM v. PLA [6]: 4.97
ADCS-ADL (change) mean [6]: −1.2
CIBIC-PLUS Raw Mean Diff., MEM v. PLA [6]: −0.5
CIBIC-PLUS mean [6]: 4.4
SIB (change) LS Mean Diff., MEM v. PLA [6]: 14.05
SIB (change) mean [6]: −0.5
ADCS-ADL (change) LS Mean Diff., MEM v. PLA (MZ-9605, week 28, ITT LOCF, baseline NPI agitation score ≧=4, listed as MEM): −4.97
ADCS-ADL (change) LS Mean Diff., MEM v. PLA [7]: 2.06
ADCS-ADL (change) LS mean [7]: −3.02
CIBIC-PLUS LS mean [7]: 4.48
CIBIC-PLUS Raw Mean Diff., MEM v. PLA [7]: −0.25
SIB (change) LS Mean Diff., MEM v. PLA [7]: 5.91
SIB (change) LS mean [7]: −3.93
CIBIC-Plus ratings, mean difference memantine v. placebo (at endpoint (LOCF)): 0.3
ADCS-ADL total score, mean difference memantine v. placebo (endpoint, LOCF): −2.1
SIB total score, mean difference memantine v. placebo (endpoint, LOCF): −2.1
ADCS-ADL total score, mean difference memantine v. placebo (week 28, OC): −3.4
CIBIC-Plus ratings, mean difference memantine v. placebo (week 28, OC): 0.4
SIB total score, mean difference memantine v. placebo (week 28, OC): −3.4
